The source of these data is ChEMBL document CHEMBL1134826, “Pyrrolidine inhibitors of human cytosolic phospholipase A2. Part 2: synthesis of potent and crystallized 4-triphenylmethylthio derivative 'pyrrophenone'” (Bioorg Med Chem Lett, 2001).

SMILES strings stand for the structures.

The species named for experiment [1] is Homo sapiens. Put plainly: Concentration required to inhibit production of arachidonic acid from whole blood stimulated with A-23187. The class given is functional, organism-based.
The species entered for experiment [2] is Homo sapiens. Put plainly: Concentration required to inhibit production of TXB2 from whole blood stimulated with A-23187. The class given is functional, organism-based.
Experiment [3] relates to THP-1. Put plainly: Concentration required to inhibit production of PGE-2 from THP-1 cells stimulated with A-23187. The class given is functional, cell-based. Particulars: Homo sapiens.
The species entered for experiment [4] is Homo sapiens. Put plainly: Concentration required to inhibit production of LDH from whole blood stimulated with A-23187. Format: functional, organism-based.
In experiment [5] the test system is THP-1. Put plainly: Concentration required to inhibit production of LTC4 from THP-1 cells stimulated with A-23187. Format: functional, cell-based. The following applies: Homo sapiens.
Experiment [6] relates to THP-1. Put plainly: Concentration required to inhibit production of arachidonic acid from THP-1 cells stimulated with A-23187. Format: functional, cell-based. Particulars: Homo sapiens.
Experiment [7] is filed under the species Homo sapiens. Put plainly: Concentration required to inhibit production of PGE-2 from whole blood stimulated with A-23187. Format: functional, organism-based.
For experiment [8], the species on record is Homo sapiens. Put plainly: Concentration required to inhibit production of LTB4 from whole blood stimulated with A-23187. The class given is functional, organism-based.

As for `CCCCC/C=C\C/C=C\C/C=C\C/C=C\CCCC(=O)O` [ARACHIDONIC ACID], the IC50 in the experiment listed under Homo sapiens [1] is above 10 µM; in the experiment listed under Homo sapiens [2], above 10 µM; with THP-1 [3], 0.18 µM; in the experiment listed under Homo sapiens [4] it was above 10 µM; in the experiment on THP-1 [5] it was 0.0047 µM; with THP-1 [6], 40 µM. For the same molecule, the results for the IC50 in the experiment listed under Homo sapiens [7] and in the experiment filed under Homo sapiens [8] were above 10 µM and 0.94 µM, respectively.
Turning to `CCCCC/C=C\C/C=C\C/C=C\C/C=C\CCCC(=O)C(F)(F)F` [ARACHIDONYL TRIFLUOROMETHYLKETONE], the IC50 in the experiment listed under Homo sapiens [1] was above 10 µM; in the experiment listed under Homo sapiens [2] it was above 10 µM; in the experiment filed under Homo sapiens [4], above 10 µM; in the experiment with THP-1 [5], 41 µM; in the experiment with THP-1 [6] it was 86 µM; in the experiment filed under Homo sapiens [7], above 10 µM. The molecule further had an IC50 in the experiment listed under Homo sapiens [8] above 10 µM.
For `COc1ccc2c(c1)c(CC(=O)O)c(C)n2C(=O)c1ccc(Cl)cc1` [INDOMETHACIN], the 50% inhibitory concentration (IC50) in the experiment filed under Homo sapiens [1] was above 10 µM; in the experiment listed under Homo sapiens [2], 0.36 µM; in the experiment filed under Homo sapiens [4], above 10 µM; in the experiment with THP-1 [5] it was above 10 µM; in the experiment on THP-1 [6], above 10 µM; in the experiment listed under Homo sapiens [7], 0.26 µM. In the experiment filed under Homo sapiens [8], the IC50 is above 10 µM.

Usually IC50 stands for the point on the concentration scale where inhibition reaches its midpoint. A low value points to greater potency in that assay.
